In patent publication US20140228329A1, “USE OF 25-HYDROXY VITAMIN D3 TO PROMOTE PHOSPHOROUS UTILISATION IN RUMINANTS” (DSM IP ASSETS B.V., priority 2011, published 2014):

Key:
cattle [1] = test: Low Phosphorous diet experiment in cattle: blood plasma phosphorous concentration; type: in vivo; settings: cattle on low Phosphorous roughage diet, 2,000 μg 25-hydroxy-vitamin D3 per head/day vs control diet; measured after 1, 11, 12, 13 and 14 days; effect at least after 10 days (FIG. 1)
Experimental: (§1) In an experimental cattle farm, two groups of animals were selected for the following experiment with a low Phosphorous diet.
(§2) One group received the control diet which was the standard roughage diet without the supplementation of 25-hydroxy-vitamin D3. The other group received the experimental diet which was the standard roughage diet supplemented with 2,000 μg 25-hydroxy-vitamin D3 per head/day
After 1, 11, 12, 13 and 14 days the blood plasma concentration of phosphorous was measured by standard method.

cattle [2] = test: Low Phosphorous diet experiment in cattle: phosphorous in diet, faeces and urine (P balance); type: in vivo
Experimental: as §1, §2
Additionally the phosphorous concentration in g/day was measured or/calculated in the diet, faeces and urine.

[3] = low Phosphorous roughage diet, 2,000 μg 25-hydroxy-vitamin D3 per head/day, NS vs control
[4] = low Phosphorous roughage diet, 2,000 μg 25-hydroxy-vitamin D3 per head/day, P < 0.05 vs control

## C=C1CC[C@H](O)C/C1=C/C=C1\CCC[C@]2(C)[C@@H]([C@H](C)CCCC(C)(C)O)CC[C@@H]12 [25OH-D3, 25-hydroxy vitamin D3]
Cattle [1]
  phosphorous concentration in blood plasma: significant increase
Cattle [2]; low Phosphorous diet, after 25-OH D3 supplementation vs control
  P excretion by the animal: significant decrease
Cattle [2]; [3]
  P (g/day) Feed: 26.36 g/day
  P (g/day) Urine: 1.12 g/day
Cattle [2]; [4]
  P (g/day) Faeces: 17.21 g/day
  P (g/day) Retained: 8.03 g/day
